Data published in patent US6605628B1, “Method of using 5-(arysulfonyl)-, 5-(arylsulfanyl)-and 5-(arylsulfanyl)thiazolidine-2,4-diones for inhibition of farnesyl-protein transferase” (Wyeth Holdings Corporation, priority 2001, dated 2003).

Experiments:
[1] = biological target: T1, FPTase (Homo sapiens, UniProt P49354+P49356); assay: in vitro FTase Inhibition Assay, H-Ras used as substrate for farnesylation; assay type: biochemical; conditions: Table I, read-out: IC50 H-Ras*
Protocol: (§1) Enzyme test procedure: FPTase inhibition in vitro assay was performed according to James, G. L., Brown, M. S., and Goldstein, J. L., Methods in Enzymology, 1995, 255, 38-46; and Garcia, M. A., et al., J. Biol. Chem., 1993, 268, 18415-18420.
(§2) Materials—Purified FPTase (Moomaw, J. F. and Casey, P. J., J. Biol. Chem., 1992, 267, 17438-17443), purified His6-Ras, inhibitor compounds at 10 mg/ml or 10 mM in 100% DMSO, ^3H-FPP (50,000 dpm/pmol) Amersham, TCA/SDS (6%/2%), TCA (6%), Glass fiber filters ([…]), vacuum manifold or 96 well filtration plates.
(§3) Methods—1. Dilute FPTase inhibitors from stock solutions to 2.5× in 2.5% DMSO, 10 mM DTT, 0.5% octyl-B-glucoside. 2. Solution #1 is added to FPTase reaction in a volume of […]. 3. Standard reaction mix, […], contains 50 mM Tris (7.5), 10 mM ZnCl2, 3 mM MgCl2, 20 mM KCl, 5 mM DTT, 0.2% octyl-B-glucoside, 1% DMSO, […] His6-Ras, 10 ng FPTase, and various concentrations of FPTase inhibitors. 4. Incubate for 30-90 min at 25° C. 5. Stop reactions with TCA/SDS (6%/2%), hold at 4° C. for 45-60 min. 6. Filter by manifold or 96 well plate, wash filter 3-5× with TCA (6%). 7. Add scintillant to filters, measure ^3H-FPP incorporation into Ras protein.
(§4) Analysis of Results—Percent inhibition by test compounds is determined by the following:
(§5) (cpm from precipitated Ras with test compounds)−(background cpm)×100=% inhibition.
(§6) (cpm from precipitated Ras without test compounds)−(background cpm)

[2] = biological target: T1, FPTase; assay: in vitro FTase Inhibition Assay, K-Ras used as substrate for farnesylation; assay type: biochemical; conditions: Table I
Protocol: as §1, §2, §3, §4, §5, §6

[3] = system: K-ras dependent human colon carcinoma (LoVo); assay: in vivo effects against K-ras dependent human colon carcinoma (LoVo); conditions: 1 mg/kg per dose IP, days 5, 9 and 13; control 0.5% Methocel 0.4% Tween 80
From the text: […] For the compound of example 114, when tested against a K-ras dependent human colon carcinoma (LoVo), the following results were obtained (Table III):

SMILES	IC50 [1]	IC50 [2]	also measured
COc1ccc(S(=O)(=O)C2(CCCC#Cc3cc(NC(=O)Oc4ccc(Cl)cc4)ccc3C)SC(=O)NC2=O)cc1 (stereo not drawn) [Example 177, (3-{5-[5-(4-Methoxybenzenesulfonyl)-2,4-dioxothiazolidin-5-yl]pent-1-ynyl}-4-methylphenyl)carbamic Acid 4-Chloro-phenyl Ester]	11 to 32 nM	86 to 100 nM	–
Cc1ccc(S(=O)(=O)C2(CCC/C=C\c3ccc(Cl)cc3)SC(=O)NC2=O)cc1 (stereo not drawn) [Example 217, 5-[(4Z)-5-(4-Chloro-phenyl)pent-4-enyl]-5-(toluene-4-sulfonyl)-thiazolidine-2,4-dione]	100 nM	8500 nM	–
COc1ccc(S(=O)(=O)C2(CCCC#Cc3cccc(N)c3)SC(=O)NC2=O)cc1 (stereo not drawn) [Example 220, 5-[5-(3-Aminophenyl)pent-4-ynyl]-5-(4-methoxybenzenesulfonyl)-thiazolidine-2,4-dione]	90 nM	3000 nM	–
COc1ccc(S(=O)(=O)C2(CCCC#Cc3cc(NC(=O)OCc4ccc([N+](=O)[O-])cc4)ccc3C)SC(=O)N(C(=O)OCc3ccc([N+](=O)[O-])cc3)C2=O)cc1 (stereo not drawn) [Example 227, 4-Nitrobenzyl 5-[(4-methoxyphenyl)sulfonyl]-5-{5-[2-methyl-5-({[(4-nitrobenzyl)oxy]carbonyl}amino)phenyl]pent-4-ynyl}-2,4-dioxo-1,3-thiazolidine-3-carboxylate]	7 to 10 nM	210 to 400 nM	–
CCCCOC(=O)Nc1ccc(C)c(C#CCCCC2(S(=O)(=O)c3ccc(OC)cc3)SC(=O)N(C(=O)OCCCC)C2=O)c1 (stereo not drawn) [Example 231, Butyl 5-(5-{5-[(butoxycarbonyl)amino]-2-methylphenyl}pent-4-ynyl)-5-[(4-methoxy-phenyl)sulfonyl]-2,4-dioxo-1,3-thiazolidine-3-carboxylate]	10 to 21 nM	100 to 1000 nM	–
COc1ccc(S(=O)(=O)C2(CCCC#Cc3cc(NC(=O)OCC(C)C)ccc3C)SC(=O)N(C(=O)OCC(C)C)C2=O)cc1 (stereo not drawn) [Example 232, Isobutyl 5-(5-{5-[(isobutoxycarbonyl)-amino]-2-methylphenyl}pent-4-ynyl)-5-[(4-methoxyphenyl)sulfonyl]-2,4-dioxo-1,3-thiazolidine-3-carboxylate]	5 to 10 nM	40 to 640 nM	–
CC[C@]1(O)C[C@H]2CN(CCc3c([nH]c4ccccc34)[C@@](C(=O)OC)(c3cc4c(cc3OC)N(C=O)[C@H]3[C@@](O)(C(=O)OC)[C@H](OC(C)=O)[C@]5(CC)C=CCN6CC[C@]43[C@@H]65)C2)C1 [Vincristine, reference compound]	–	–	% T/C, Day8 [3]: 16%; % T/C, Day 15 [3]: 8%; % T/C, Day 22 [3]: 14%; % T/C, Day 29 [3]: 19%; % T/C, Day 36 [3]: 15%; Mean Tumor Weight, Day8 [3]: 14 mg; Mean Tumor Weight, Day 15 [3]: 24 mg; Mean Tumor Weight, Day 22 [3]: 84 mg; Mean Tumor Weight, Day 29 [3]: 139 mg; Mean Tumor Weight, Day 36 [3]: 194 mg

Continued, in another order:

IC50 [1]	IC50 [2]	SMILES	also measured
17 to 32 nM	10 nM	COC(=O)Nc1ccc(C)c(C#CCCCC2(S(=O)(=O)c3ccc(OC)cc3)SC(=O)NC2=O)c1 (stereo not drawn) [Example 178, (3-{5-[5-(4-Methoxybenzenesulfonyl)-2,4-dioxothiazolidin-5-yl]pent-1-ynyl}-4-methylphenyl)carbamic Acid Methyl Ester]	–
2 to 32 nM	5 to 70 nM	COc1ccc(S(=O)(=O)C2(CCCC#Cc3cc(NC(=O)OC(C)C)ccc3C)SC(=O)NC2=O)cc1 (stereo not drawn) [Example 179, (3-(5-[5-(4-Methoxybenzenesulfonyl)-2,4-dioxothiazolidin-5-yl]pent-1-ynyl}-4-methylphenyl)carbamic Acid Isopropyl Ester]	–
2 to 32 nM	7 to 90 nM	COc1ccc(S(=O)(=O)C2(CCCC#Cc3cc(NC(=O)OCC(C)(C)C)ccc3C)SC(=O)NC2=O)cc1 (stereo not drawn) [Example 180, (3-(5-[5-(4-Methoxybenzenesulfonyl)-2,4-dixothiazolidin-5-yl]pent-1-ynyl}-4-methylphenyl)carbamic Acid Neopentyl Ester]	–
10 to 32 nM	100 to 130 nM	CCCCOC(=O)Nc1ccc(C)c(C#CCCCC2(S(=O)(=O)c3ccc(OC)cc3)SC(=O)NC2=O)c1 (stereo not drawn) [Example 181, (3-(5-[5-(4-Methoxybenzenesulfonyl)-2,4-dioxothiazolidin-5-yl]pent-1-ynyl}-4-methylphenyl)carbamic Acid Butyl Ester]	–
5 to 10 nM	32 to 56 nM	COc1ccc(S(=O)(=O)C2(CCCC#Cc3cc(NC(=O)OCC(C)C)ccc3C)SC(=O)NC2=O)cc1 (stereo not drawn) [Example 182, (3-{5-(5-(4-Methoxybenzenesulfonyl)-2 ,4-dioxothiazolidin-5-yl]pent-1-ynyl}-4-methylphenyl)carbamic Acid Isobutyl]	–
100 nM	1200 nM	COc1ccc(S(=O)(=O)C2(CCCC#Cc3cc(NC(=O)Nc4ccc(Cl)cc4)ccc3C)SC(=O)NC2=O)cc1 (stereo not drawn) [Example 189, N-(4-Chlorophenyl)-N′-[3-(5-{5-[(4-methoxyphenyl)sulfonyl]-2,4-dioxo-1,3-thiazolidin-5-yl}-1-pentynyl)-4-methylphenyl]urea]	–
30 to 50 nM	100 to 3200 nM	COc1ccc(S(=O)(=O)C2(CCCC#Cc3cc(NC(=O)OCc4ccccc4)ccc3C)SC(=O)N(C(=O)OCc3ccccc3)C2=O)cc1 (stereo not drawn) [Example 226, Benzyl 5-[5-(5-{[(benzyloxy)carbonyl]-amino}-2-methylphenyl)pent-4-ynyl]-5-[(4-methoxyphenyl)sulfonyl]-2,4-dioxo-1,3-thiazolidine-3-carboxylate]	–
4 to 70 nM	230 to 1000 nM	COC(=O)Nc1ccc(C)c(C#CCCCC2(S(=O)(=O)c3ccc(OC)cc3)SC(=O)N(C(=O)OC)C2=O)c1 (stereo not drawn) [Example 228, Methyl 5-(5-{5-[(methoxycarbonyl)amino]-2-methylphenyl}pent-4-ynyl)-5-[(4-methoxyphenyl)sulfonyl]-2,4-dioxo-1,3-thiazolidine-3-carboxylate]	–
6 to 20 nM	100 to 700 nM	COc1ccc(S(=O)(=O)C2(CCCC#Cc3cc(NC(=O)OC(C)C)ccc3C)SC(=O)N(C(=O)OC(C)C)C2=O)cc1 (stereo not drawn) [Example 229, Isopropyl 5-(5-{5-[(isopropoxycarbonyl)-amino]-2-methylphenyl}pent-4-ynyl)-5-[(4-methoxyphenyl)sulfonyl]-2,4-dioxo-1,3-thiazolidine-3-carboxylate]	–
3 to 3.5 nM	20 to 500 nM	COc1ccc(S(=O)(=O)C2(CCCC#Cc3cc(NC(=O)OCC(C)(C)C)ccc3C)SC(=O)N(C(=O)OCC(C)(C)C)C2=O)cc1 (stereo not drawn) [Example 230, Neopentyl 5-[(4-methoxyphenyl)sulfonyl]-5-[5-(2-methyl-5-{[(neopentyloxy)carbonyl]-amino}phenyl)pent-4-ynyl]-2,4-dioxo-1,3-thiazolidine-3-carboxylate]	–
